From patent publication US20240285740A1, “COMPOSITIONS AND METHODS FOR TREATING CANCER” (Dana-Farber Cancer Institute, Inc., priority 2021, published 2024)
Entries after “also recorded” stand apart in the source; their conditions may differ. Blank lines part the entries; values can stand above or below the substance they belong to.

Key:
[1] = system: XBP1/CD138/CS1-specific CD8+ CTL stimulated with U266 MM cells; test: CFSE proliferation of XBP1/CD138/CS1-specific CTL in response to HLA-A2+ U266 MM cells; format: cell-based, human; conditions: CTL (N=5) treated with antibody, α-LAG3>α-PD-1, FIG. 6B
Method: (§1) XBP1/CD138/CS1-specific CTL were generated ex vivo after four cycles of weekly stimulation of HLA-A2^+ CD3^+ T lymphocytes (N=5) with a cocktail of four peptides containing heteroclitic XBP1 US184-192 (YISPWILAV (SEQ ID NO: 24)), heteroclitic XBP1 SP367-375 (YLFPQLISV (SEQ ID NO: 25)), native CD138260-268 (GLVGLIFAV (SEQ ID NO: 26)) and native CS1239-247 (SLFVLGLFL (SEQ ID NO: 27)), as described previously.
(§2) Proliferation of specific cell populations was evaluated using CFSE-based proliferation assays. In brief, MM patient BMMC, PBMC or XBP1/CD138/CS1-specific CTL were labeled with CFSE (Molecular Probes, Eugene, OR) and incubated with clinical grade checkpoint inhibitor (1 μg/ml) or immune agonist (1 μg/ml) in the presence of low dose (20 units) IL-2, with or without stimulation with irradiated MM cells (patients' cells, cell line) or MM lysates. After 4-7 days incubation, the cells were stained with LIVE/DEAD reagent and specific fluorochrome conjugated mAbs, washed, fixed in 2% paraformaldehyde, and acquired using a LSRII Fortessa™ flow cytometer.

[2] = system: CD3+ T cells in PBMC from MM patients; test: CFSE T cell proliferation in MM patient PBMC with or without MM lysate stimulation; format: cell-based, human; conditions: newly diagnosed (N=6) or relapsed (N=3) MM, presence or absence of MM lysate, vs anti-PD1, anti-OX40, anti-GITR, FIG. 1C
Method: (§3) Multiple myeloma (MM) cell lines U266, McCAR, HSB2, MMIS, RPMI8226, OPM2, H929, ANBL6, OCIMY5, AMO1 and KMS11 were obtained from ATCC (Manassas, VA). The T2 cell line, a human B and T cell hybrid expressing HLA-A2 molecules, was provided by Dr. J. Molldrem (University of Texas M. D. Anderson Cancer Center, Houston, TX). The cell lines were cultured in DMEM media supplemented with 10% fetal calf serum (FCS; BioWhittaker, Walkersville, MD), 100 IU/ml penicillin, and 100 μg/ml streptomycin (Gibco-Life Technologies, Rockville, MD). A mixture of ten MM cell lines was utilized to prepare tumor cell lysates by repeated (10×) cycles of freeze (−140° C.)/thaw (37° C.) or prepared as irradiated (20 Gy) whole tumor cells as sources of MM antigen stimulation.
BM aspirates and peripheral blood (PB) samples were obtained from patients with MGUS [BM: N=5, PB: N=5] and SMM [BM: N=5, PB: N=5] and patients with MM (Newly Diagnosed [BM: N=15, PB: N=10], Relapsed [BM: N=12, PB: N=12], Relapsed/Refractory [BM: N=15, PB: N=12]) after informed consent, in accordance with the Declaration of Helsinki, and with approval by the Institutional Review Board at Dana-Farber Cancer Institute (Boston, MA). […]
Proliferation of specific cell populations was evaluated using CFSE-based proliferation assays. […]

[3] = system: U266 MM cells; test: CD107a degranulation and intracellular IFN-γ production of XBP1/CD138/CS1-specific CTL against MM; format: cell-based, human; conditions: CTL treated 1 μg/ml antibody 24 hours, then cultured with U266; FIG. 6C
Method: as §1
The anti-tumor activities of MM-specific CTL were measured by CD107a degranulation and IFN-γ production against MM. In brief, XBP1/CD138/CS1-specific CTL were treated with clinical grade anti-PD1 or anti-LAG3 (1 μg/ml) for 24 hours. The cells were then cultured with U266 MM cells in the presence of CD107a mAb. After 1-hour incubation, Brefeldin A (BD) and Monensin (BD) were added, and cultures were incubated for an additional 5 hours. Cells were harvested, washed in PBS, stained with LIVE/DEAD reagent, washed, incubated with fluorochrome conjugated mAb to identify T cells, allowing for assays of their functional activity against MM. After surface staining, cells were fixed/permeabilized, stained for Th1 cytokines, washed with Perm/Wash solution (BD), and analyzed by flow cytometry. MP-CTL specific CD107a degranulation and Th1 cytokine production were analyzed using DIVA™ v8.0 or FlowJo v10.0.7 software.

[4] = system: CD4+ Treg in BMMC from MM patients; test: Treg proliferation in MM patient BMMC after modulator treatment; format: cell-based, human; conditions: for Treg proliferation: BMMC of MM patients (N=5), single agents compared, FIG. 5B
Method: (§4) BMMC or PBMC from patients with MGUS, SMM, MM or healthy individuals were evaluated by flow cytometry analyses by staining cells with fluorochrome-conjugated mAb specific to each cell surface antigen for 30 minutes at room temperature, followed by LIVE/DEAD reagent staining to confirm viability. Regulatory T cells (Treg) were identified by cell surface staining (CD3, CD4, CD8, CD25), permeabilized using Foxp3/Transcription Factor Staining Buffer Set (eBioscience) and stained for intracellular FOXP3 expression. Myeloid-derived-suppressor cells (MDSC) were identified as G-type MDSC (CD11b+CD33+ HLA-DRlow/−CD14−CD15+) and M-type MDSC (CD11b+CD33+ HLA-DRlow/−CD14+CD15−). Cells were acquired using a BD Fortessa X-20 (BD Biosciences) flow cytometer, and the data was analyzed using DIVA™ v8.0 (BD) or FlowJo v10.0.7 (Tree star, Ashland, OR) software.
as §2

[5] = system: PD1+ or LAG3+ T cells in BMMC from MM patients; test: Checkpoint (PD1, LAG3) expression on T cells in MM patient BMMC after modulator treatment, flow cytometry; format: cell-based, human; conditions: for upregulation / induction of other immune checkpoints: MM patient BMMC, among clinical grade checkpoint inhibitors and immune agonists evaluated (discussion)
Method: as §4, §2

[6] = system: T cells (CD3+, CD4+ Th, CD8+ Tc) in BMMC from MM patients; test: CFSE proliferation of T cells in MM patient BMMC treated with checkpoint inhibitor, immune agonist or LAG3-ligand antibody; format: cell-based, human; conditions: for CD3+ T cell proliferation: BMMC, newly diagnosed, relapsed or relapsed/refractory MM (N=10), vs untreated control
Source text: BM aspirates and peripheral blood (PB) samples were obtained from patients with MGUS [BM: N=5, PB: N=5] and SMM [BM: N=5, PB: N=5] and patients with MM (Newly Diagnosed [BM: N=15, PB: N=10], Relapsed [BM: N=12, PB: N=12], Relapsed/Refractory [BM: N=15, PB: N=12]) after informed consent, in accordance with the Declaration of Helsinki, and with approval by the Institutional Review Board at Dana-Farber Cancer Institute (Boston, MA). In addition, healthy individuals BM [N=5] or leukapheresis [N=5] products were purchased from either AllCells (Alameda, CA) or the Blood Donor Center at Boston Children's Hospital (Boston, MA), respectively. Mononuclear cells were isolated from BM (BMMC) or PB (PBMC) by standard density gradient centrifugation using Ficoll-Paque™ Plus (Amersham Pharmacia Biotech AB, Uppsala Sweden) and used in these studies.
as §2

[7] = system: T cells in BMMC from MM patients; test: CFSE T cell proliferation in MM patient BMMC stimulated with irradiated tumor cells or tumor lysates; format: cell-based, human; conditions: BMMC (N=5), FIG. 9; for enhancement of tumor-lysate-induced T cell response: checkpoint inhibitors (anti-LAG3>anti-PD1) more than immune agonists
Method: as §3, §2

[8] = target: human Galectin-3 (GAL3) (human) (UniProt P17931); test: cell-based or functional assay
[9] = BMMC of MM patients (N=10), FIG. 5A
[10] = BMMC of MM patients (N=10), antibody 1 μg/ml, low dose IL-2, FIG. 1B
[11] = antibody 1 μg/ml, low dose IL-2, FIG. 1B

UniProt P17931, sequence (P17931 2-250 limits assumed): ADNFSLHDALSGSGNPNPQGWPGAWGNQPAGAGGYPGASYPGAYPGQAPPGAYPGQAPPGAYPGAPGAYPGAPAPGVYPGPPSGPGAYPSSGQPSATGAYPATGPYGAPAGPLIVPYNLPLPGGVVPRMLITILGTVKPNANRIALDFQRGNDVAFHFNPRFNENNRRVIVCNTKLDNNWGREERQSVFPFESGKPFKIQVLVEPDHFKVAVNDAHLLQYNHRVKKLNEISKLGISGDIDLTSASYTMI

Substance: anti-LAG3: Clinical grade checkpoint inhibitor, anti-LAG3 antibody Relatlimab, provided by Bristol-Myers Squibb
proliferation of total CD8+ T cells and Central Memory, Effector Memory, CD28+ and CD38+ CTL subsets [1]: significantly increase; also recorded: enhanced proliferation | T cell proliferation [2]: significantly (*p<0.05) higher | CD107a degranulation [3]: highest anti-tumor activities | IFN-γ production [3]: highest anti-tumor activities | impact of treatment on G-type MDSC and Tregs ([4]; BM milieu of MM patients (discussion)): low | Treg proliferation [4]: lowest induction; also recorded: lowest level | upregulation of PD1 and LAG3 expression on T cells [5, 9]: induce upregulation | upregulation / induction of other immune checkpoints [5]: lowest level | proliferation of CD4+ Th cells [6, 10]: significant increase; also recorded: highest proliferation | proliferation of CD8+ Tc cells [6, 10]: increased; also recorded: highest proliferation | CD3+ T cell proliferation [6, 11]: triggered | effector T cell proliferation ([6]; among clinical grade checkpoint inhibitors and immune agonists evaluated (discussion)): most robust | T cell responses in BMMC/PBMC from MM patients compared with healthy donors ([6]; discussion): significantly increased | enhancement of tumor-lysate-induced T cell response [7]: enhanced to a greater extent | T cell proliferation ([7]; mixture of ten MM cell lines as irradiated whole cells or tumor lysates, vs other immune modulators): significantly higher

proliferation of CD4+Th cells in newly diagnosed MM patient BMMC, Patient #1 [8]: 13% | proliferation of CD4+Th cells in newly diagnosed MM patient BMMC, Patient #2 [8]: 9% | proliferation of CD8+Tc cells in newly diagnosed MM patient BMMC, Patient #1 [8]: 45% | proliferation of CD8+Tc cells in newly diagnosed MM patient BMMC, Patient #2 [8]: 38%
Substance: Anti-GAL3 antibody (BD, Clone B2C10; Cat Nos.: 565676-565678, and 565682)

Substance: anti-PD1: Clinical grade checkpoint inhibitor, anti-PD1 antibody Nivolumab, provided by Bristol-Myers Squibb
proliferation of total CD8+ T cells and Central Memory, Effector Memory, CD28+ and CD38+ CTL subsets [1]: significantly increase | Treg proliferation [4]: high induction; also recorded: highest level | expansion of Treg cells, single agent ([4]; BMMC, relapsed/refractory MM (N=3), FIG. 5C): significant (*p<0.05) expansion | proliferation of T cells expressing an alternative immune checkpoint [5, 9]: to a greater extent than anti-LAG3 treatment | upregulation of PD1 and LAG3 expression on T cells [5, 9]: induce upregulation | upregulation / induction of other immune checkpoints [5]: highest level | upregulation / induction of other immune checkpoints ([5]; listed as anti-PD-1 antibody): upregulate | proliferation of CD4+ Th cells [6, 10]: significant increase | CD3+ T cell proliferation [6, 11]: triggered | enhancement of tumor-lysate-induced T cell response [7]: enhanced to a greater extent
